These results are taken from PubChem BioAssay AID1417 (Emory University Molecular Libraries Screening Center, 2008).

For the test, the target named is Induced myeloid leukemia cell differentiation protein Mcl-1 (Homo sapiens) (UniProt Q07820). Kind of test: Mcl-1 Noxa peptide disruption concentration-response – biochemical, TR-FRET, dose response (AID 1417). The note with it: Mcl-1/Noxa peptide interaction, cell-free TR-FRET (terbium/rhodamine), 2 h; measured here: absolute IC50. In general terms: TR-FRET usually uses a lanthanide donor and a delayed reading to cut background.
Induced myeloid leukemia cell differentiation protein Mcl-1 (Homo sapiens), sequence (Q07820 whole entry, looked up): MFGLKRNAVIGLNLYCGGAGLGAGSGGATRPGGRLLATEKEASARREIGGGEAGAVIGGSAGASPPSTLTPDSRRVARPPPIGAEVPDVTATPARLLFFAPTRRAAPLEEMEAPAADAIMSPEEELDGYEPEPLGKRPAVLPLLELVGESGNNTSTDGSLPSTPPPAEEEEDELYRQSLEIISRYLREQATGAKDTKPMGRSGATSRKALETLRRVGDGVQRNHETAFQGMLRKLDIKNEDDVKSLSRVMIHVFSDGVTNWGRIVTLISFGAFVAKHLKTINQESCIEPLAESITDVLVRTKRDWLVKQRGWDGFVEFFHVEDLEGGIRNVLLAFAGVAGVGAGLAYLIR

SMILES strings stand for the structures. Bounds are passed on as bounds.

Regarding `OCCNc1nc(Nc2ccccc2)nc(Nc2ccccc2)n1`, the IC50 (commonly the concentration that inhibits the measured activity by half) is greater than 54 µM.
Next, `C=CCOc1c(OC)cc(/C=N/Nc2cccc(C(=O)O)c2)c(Br)c1Br`: greater than 54 µM.
Consider `O=C(O)Cc1c[nH]c2cccc(O)c12`, for which the half-maximal inhibitory concentration (IC50) worked out at 0.81 µM.
On to `O=C(O)c1ccc(N/N=C/c2ccc(-c3cc(Cl)ccc3Cl)o2)cc1`, for which the concentration for half-maximal inhibition (IC50) was determined as 1.84 µM.
In the case of `NC(=O)C1CCN(C2=C(Cl)C(=O)c3ccccc3C2=O)CC1` it was 48.2 µM; in that of `S=c1[nH]nc(-c2cc(-c3ccccc3)n[nH]2)n1/N=C/C(Br)=C/c1ccccc1`, 7.38 µM; in that of `COc1ccc(-c2ccc(/C=N/NC(=O)c3cccnc3)o2)c([N+](=O)[O-])c1`, 4.32 µM.
`CC(/C=C/c1ccco1)=N/NC(=O)Cc1cccs1` yielded an IC50 of 4.32 µM.
Next, `O=C1NN(c2ccc(Cl)c(Cl)c2)C(=O)/C1=C/c1cccc(OC(=O)c2cccs2)c1`: 4.13 µM.
Regarding `CCNc1ccc(Br)cc(C(=O)/C=C/c2ccc(Cl)cc2)c1=O`, the IC50 was 2.03 µM. Compared with the last compound, the IC50 is about 2-fold lower.
Next, `N=C1S/C(=C\c2ccco2)C(=O)N1c1ccc2c(c1)OCO2`: 8.85 µM; `COC(=O)Nc1ccc(S(=O)(=O)NCc2ccccn2)cc1`: greater than 54 µM.
In the case of `COc1cc(/C=C(\C#N)c2nc3ccc(C)cc3[nH]2)cc([N+](=O)[O-])c1O`, the IC50 amounted to 3.44 µM.
In the case of `O=C(CSc1ccsc1[N+](=O)[O-])Nc1cc(F)ccc1F` it was greater than 54 µM; in that of `COc1ccc2nc(N3C(=O)/C(=C/c4ccc(Cl)cc4)NC3=S)sc2c1`, 1.43 µM.
Take `Cn1c(N)c(C(=O)COC(=O)c2cc(-c3ccco3)nc3ccccc23)c(=O)n(Cc2ccccc2)c1=O`: the IC50 is less than 0.4 µM.
Compound `CCC(=O)N(CC)C1=C(O)c2ccccc2C(=O)C1=O` gave a concentration for half-maximal inhibition (IC50) of 0.997 µM.
For the compound `Cc1cc2nc(-c3ccc(SCc4ccc(C(=O)O)cc4)nc3)[nH]c2cc1C`, the IC50 was less than 0.4 µM.
Take `O=C(N/N=C/c1ccc(-c2ccccc2C(=O)O)o1)c1cccs1`: the IC50 stood at 7.88 µM.
With `CC(=O)Nc1ccc(C(=O)Nc2cccc(-c3cnc4ccccc4n3)c2)cc1`, the IC50 was greater than 54 µM.
In the case of `COc1ccc(N2C(=O)/C(=C/C=C/c3ccccc3[N+](=O)[O-])C(=O)NC2=S)cc1` it was less than 0.4 µM.
Next, `Cc1cc(C(=O)OCC(=O)Nc2sc3c(c2C#N)CCC(C)C3)c2ccccc2n1` (configuration not stated): 4.27 µM; `Cc1ccc(-n2c(=O)c3cc4c(=O)n(-c5ccc(C)c(C)c5)c(=O)c4c(C(=O)c4ccc(C(=O)O)cc4)c3c2=O)cc1C`: 4.28 µM; `Cc1cc(C)c(S(=O)(=O)/N=C2/C=C(SCC(=O)O)C(=O)c3ccccc32)cc1C`: less than 0.4 µM.
Compound `O=C(CCO)c1ccc(O)cc1` registered an IC50 of 3.19 µM.
For `Cc1ccc(C)c(S(=O)(=O)Nc2cc(SCC(=O)O)c(O)c3ccccc23)c1`, the IC50 was less than 0.4 µM.
`CCN(CC)Cc1cc(O)c(CN(CC)CC)cc1O` registered a concentration for half-maximal inhibition (IC50) of less than 0.4 µM.
For `Nc1ccc(C2=Nc3cccc4cccc(c34)N2)cc1`, the IC50 was less than 0.4 µM.
In turn, `COc1ccc(N2Cc3cccc(C(=O)N4CCN(C(=O)c5ccco5)CC4)c3C2=O)cc1` registered a 50% inhibitory concentration (IC50) of 1.77 µM.
Next, `Cc1cccc(NC(=O)CN2C(=O)N/C(=C/c3ccc(C)o3)C2=O)c1`: greater than 54 µM; `O=C1NC(=O)N(c2ccccc2)C(=O)/C1=C\c1ccc2c3c(cccc13)CC2`: 8.21 µM; `O=C(Nc1cccc(S(=O)(=O)N2CCOCC2)c1)c1c2c(nc3ccccc13)CCC2`: 3.08 µM.
Next, `CCOC(=O)c1c(OCC)[nH]c2c1cc(O)c1ccccc12`: less than 0.4 µM; `CCOC(=O)c1c(NC(=O)c2cc(-c3ccc(O)cc3)on2)sc(C(C)=O)c1C`: 10.9 µM; `CS(=O)(=O)c1ccc2c(c1)sc1nc(=O)c(/C=C3/C=CC(=O)C(O)=C3)c(N)n12`: less than 0.4 µM.
As for `O=[N+]([O-])c1cc(Cl)cc(/C=N/NC(=S)Nc2cc(S(=O)(=O)N3CCOCC3)ccc2Cl)c1O`, the half-maximal inhibitory concentration (IC50) was less than 0.4 µM.
`COc1cc(/C=C2/SC(=S)NC2=O)ccc1OS(=O)(=O)c1ccc(C)cc1` came in with an IC50 of 3.26 µM.
Next, `O=C(CNC(=O)C(c1ccccc1)c1ccccc1)N/N=C/c1cccnc1`: greater than 54 µM; `O=c1c(-c2c(O)cc(O)c3c(=O)cc(-c4ccc(O)cc4)oc23)c(-c2ccc(O)cc2)oc2cc(O)cc(O)c12`: greater than 54 µM.
For the compound `CN(c1ccccc1)c1ccc(/C=C(\CCC(=O)O)c2nc3ccccc3s2)cc1[N+](=O)[O-]`, the IC50 came out at 1.06 µM.
With `O=C(N/N=C\C=C\c1ccco1)c1cc(-c2ccc3ccccc3c2)n[nH]1`, the 50% inhibitory concentration (IC50) was determined as 2.11 µM.
On to `O=C(Nc1ccc(N2CCOCC2)cc1)Nc1ccc2nc(-c3ccco3)c(-c3ccco3)nc2c1`, for which the IC50 is less than 0.4 µM.
In turn, `Fc1cccc(NC(=S)NNc2c3ccccc3nc3ccccc23)c1` returned an IC50 of 3.31 µM. This lies in the single-digit micromolar range.
On to `COc1cc(/C=N\Nc2nc(-c3ccc(C)cc3)c(NC(C)=O)s2)ccc1O`, for which the 50% inhibitory concentration (IC50) is greater than 54 µM.
In the case of `Cn1cnnc1SCC(=O)Nc1sc2c(c1C(N)=O)CCC2` it was 1.81 µM; in that of `COc1ccc(N2C(=O)C3CCCN3C2=O)cc1` (configuration not stated), greater than 54 µM.
`O=[N+]([O-])c1ccc(-c2cn(-c3ccc(Cl)cc3)c(=S)[nH]2)cc1`: the half-inhibitory concentration (IC50) worked out at 7.17 µM.
Consider `O=C(Nc1cccc(Oc2ccc(C(=O)O)c(C(=O)O)c2)c1)c1ccc(-c2ccccc2)cc1`, for which the IC50 was determined as 3.61 µM.
`O=C1/C(=C/C=C/c2ccco2)SC(=S)N1c1ccc(O)cc1` returned an IC50 of less than 0.4 µM.
Next, `COc1ccc2c(c1)CC/C(=C\Nc1ccc3c(c1)OCO3)C2=O`: greater than 54 µM; `O=C1N=c2ccccc2=C1c1c(O)n(-c2cccc(F)c2)[nH]c1=O`: less than 0.4 µM; `O=c1ccc2[n+]([O-])c3ccc(O)cc3oc-2c1`: greater than 54 µM.
In turn, `N#C/C(=C(/O)c1ccc(-c2cccc([N+](=O)[O-])c2)o1)c1nc2ccccc2s1` came in with a 50% inhibitory concentration (IC50) of 5.71 µM.
On to `COc1ccc(CCNC(=O)COC(=O)Cc2cccc3ccccc23)cc1`, for which the IC50 was greater than 54 µM.
`CCc1ccc(S(=O)(=O)/N=C2/C=C(Sc3ncn[nH]3)C(=O)c3ccccc32)cc1` registered a 50% inhibitory concentration (IC50) of less than 0.4 µM.
`Oc1c(Cl)cc(Cl)cc1Sc1cc(Cl)cc(Cl)c1O` returned an IC50 of 1.64 µM.
For `CC1CCN(C(c2ccc(N(C)C)cc2)c2nnnn2C(C)(C)C)CC1` (configuration not stated), the IC50 stood at 12.5 µM.
For `Cc1nc(NC(=O)c2ccco2)sc1-c1csc(Nc2ccc(Cl)cc2Cl)n1`, the half-inhibitory concentration (IC50) is 1.24 µM.
`Cn1c(N)c(C(=O)COC(=O)c2cc(-c3ccco3)nc3ccccc23)c(=O)n(C)c1=O` displayed an IC50 of 3.41 µM.
Next, `CCOc1ccc(C(=O)Nc2cc(NC(=O)c3ccc(OCC)c(Cl)c3)cc(C(=O)O)c2)cc1Cl`: 16.5 µM; `O=C(N=Nc1c(O)n(Cc2ccccc2)c2ccccc12)c1cc2ccccc2cc1O`: 4.76 µM.
Compound `C(=C\c1ccco1)/c1ccc2ccccc2n1` gave a concentration for half-maximal inhibition (IC50) of 4.18 µM.
On to `Cc1cc2ncn(/N=C/c3ccc([N+](=O)[O-])s3)c2cc1C`, for which the IC50 worked out at 5.32 µM. The IC50 values of the last two compounds are within 1.5-fold of each other.
`CCN(CC)C(=O)COC(=O)c1cc(-c2ccco2)nc2ccccc12` showed a half-inhibitory concentration (IC50) of less than 0.4 µM.
For the compound `CN1C(=O)/C(=C/c2ccc(-c3ccccc3[N+](=O)[O-])o2)SC1=Nc1ccc(Cl)c(C(=O)O)c1`, the concentration for half-maximal inhibition (IC50) is less than 0.4 µM.
In the case of `CN(C(=O)COC(=O)c1cc(-c2ccco2)nc2ccccc12)C1CCS(=O)(=O)C1` (configuration not stated) it was less than 0.4 µM; in that of `CCOc1ccc(C2C3=C(Nc4nc(N)[nH]c(=O)c42)c2ccccc2C3=O)cc1` (configuration not stated), 23.3 µM; in that of `O=C(O)c1cccc(-n2cccc2/C=C2/NC(=O)N(c3ccc(Cl)cc3)C2=O)c1`, less than 0.4 µM.
Regarding `O=C(O)CCN1C(=O)/C(=C\c2ccc(-c3nc4ccccc4s3)o2)SC1=S`, the half-maximal inhibitory concentration (IC50) is less than 0.4 µM.
Compound `COc1ccc(NC(=O)Cc2c(SC)c3ccccc3n2Cc2ccccc2)cc1` displayed a 50% inhibitory concentration (IC50) greater than 54 µM.
In the case of `Nc1nc2c(c(=O)[nH]1)C(c1cccc3ccccc13)C1=C(N2)c2ccccc2C1=O` (configuration not stated) it was 4.17 µM.
Next, `CCOC(=O)c1c(C)oc2c1c(C(c1cccnc1)N1CCOCC1)c(O)c1ccccc12` (configuration not stated): less than 0.4 µM.
In the case of `CC(C)(O)C#Cc1ccc(CN2CCN(C3CCCCC3)C(CCO)C2)cc1` (configuration not stated), the IC50 is greater than 54 µM.
For the compound `CC(=O)c1sc2nc(-c3cccs3)ccc2c1N`, the concentration for half-maximal inhibition (IC50) is greater than 54 µM.
In turn, `Cc1ccc(N2NC(=O)/C(=C\c3cc4c(cc3[N+](=O)[O-])OCO4)C2=O)cc1C` showed an IC50 of 4.92 µM.
As to `COc1cc(/C=C2\SC(=O)N(Cc3ccc(Cl)cc3)C2=O)cc([N+](=O)[O-])c1O`, the IC50 is 7.11 µM.
Regarding `C=C(C)C(=O)Nc1cccc(C2=NOC3(C2)C[C@H](C(N)=O)N(C(=O)/C=C/C)C3)c1` (some centres not stated), the IC50 was 2.94 µM. Against the preceding compound, the IC50 is about 2.4-fold lower.
Next, `COc1cc(C2C(C#N)=C(N)OC3=C2C(=O)CCC3)c([N+](=O)[O-])cc1OC` (configuration not stated): 5.16 µM; `CCOC(=O)C1=C(O)c2ccccc2C(=O)/C1=C\c1ccc(CC)cc1`: less than 0.4 µM.
With `CC(=O)c1cc(O)c2ccccc2c1O`, the IC50 is less than 0.4 µM.
In turn, `NC(=O)c1ccsc1NC(=O)COC(=O)/C=C/c1ccc([N+](=O)[O-])cc1` registered an IC50 of 2.88 µM.
Turning to `O=C(O)CCn1cc(C=C2C(=O)NC(=S)NC2=O)c(-c2cccc(Cl)c2)n1`, the IC50 came to 1.81 µM.
`O=C(NCCO)Nc1ccc2nc(-c3ccco3)c(-c3ccco3)nc2c1` had an IC50 of less than 0.4 µM.
In the case of `COc1ccccc1C1=Nc2cccc3cccc(c23)N1`, the half-inhibitory concentration (IC50) is greater than 54 µM.
`CN(C)c1ccc(NC(=O)/C=C/c2ccccc2Cl)cc1` showed an IC50 of less than 0.4 µM.
`CC1=C(C#N)c2nc(N)c(C#N)c(C)c2/C1=C\c1ccc(-c2ccccc2C(=O)O)o1` yielded a concentration for half-maximal inhibition (IC50) of 2.98 µM.
As for `COc1cc(/C=C/C(=O)OCC(=O)Nc2cc(C)c(C)cc2[N+](=O)[O-])ccc1O`, the IC50 was 2.4 µM.
`Oc1ccc(/C=N/Nc2nc(-c3cccnc3)nc3ccccc23)c(O)c1` registered a half-inhibitory concentration (IC50) greater than 54 µM.
Next, `CCn1cc(C(=O)NCc2ccc3c(c2)OCO3)c2cc(OC)c(OC)cc2c1=O`: greater than 54 µM.
In turn, `CS(=O)(=O)c1ccc2c(c1)SC1=NC(=O)/C(=C/c3ccco3)C(=N)N12` yielded an IC50 of 2.19 µM.
As for `O=C(Nc1ccc([N+](=O)[O-])cc1)Nc1nc(-c2ccc(Cl)s2)cs1`, the IC50 amounted to 1.82 µM.
In turn, `COc1ccc(NC(C)C(=O)Nc2ccc(C#N)cc2)cc1Cl` (configuration not stated) registered a half-inhibitory concentration (IC50) greater than 54 µM.
